From US5614508A, “Amino acid derivatives of substituted quinoxaline 2,3-dione derivatives as glutamate receptor antagonists” (Warner-Lambert Company, priority 1995, dated 1997)

Legend:
[1] = molecular target: AMPA receptors; assay: binding affinity for the AMPA receptors (Honore et al.); conditions: Table 1, AMPA
[2] = molecular target: kainate site (non-NMDA receptor); assay: binding affinity for the kainate site (non-NMDA receptor) (London and Coyle); conditions: Table 1, KA

Row | SMILES | IC50 [1] [nM] | IC50 KA [2] [nM]
1 | C=Cc1c(Br)cc2[nH]c(=O)c(=O)[nH]c2c1CN(C)CC(=O)O [Compound 1, [(7-Bromo-2,3-dioxo-6-vinyl-1,2,3,4-tetrahydro-quinoxalin-5-ylmethyl)-methyl-amino]-acetic acid] | 1760 | 4680
2 | CCc1c(Br)cc2[nH]c(=O)c(=O)[nH]c2c1CN(C)CC(=O)O [Compound 2, [(7-Bromo-6-ethyl-2,3-dioxo-1,2,3,4-tetrahydro-quinoxalin-5-ylmethyl)-methyl-amino]-acetic acid] | 2350 | 6720
3 | CCOC(=O)CN(C)Cc1c(CC)c([N+](=O)[O-])cc2[nH]c(=O)c(=O)[nH]c12 [Compound 3, [(6-Ethyl-7-nitro-2,3-dioxo-1,2,3,4-tetrahydro-quinoxalin-5-ylmethyl)-methyl-amino]-acetic acid ethyl ester] | 128 | 3480
4 | CCc1ccc2[nH]c(=O)c(=O)[nH]c2c1CN(C)CC(=O)O [Compound 4, [(6-Ethyl-2,3-dioxo-1,2,3,4-tetrahydro-quinoxalin-5ylmethyl)-methyl-amino]-acetic acid] | 3920 | 17050
